From patent publication US10611778B2, “Fused bicyclic inhibitors of menin-MLL interaction” (Janssen Pharmaceutica NV, priority 2016, dated 2020)
pIC50: −log10 of the molar value. “And” between values parts separate entries of the source, which are not always exact repeats. Identical values can stand only once. Counter-ions that a name gives are not always drawn. Like-named read-outs stand apart in the source and are kept apart here.

Legend:
KG1 = assay: Proliferation assay (spheroid assay) KG1 control cell line; assay type: cell-based; conditions: Homo sapiens, KG-1, averaged values over all measurements
Method: (§1) The anti-proliferative effect of menin/MLL protein/protein interaction inhibitor test compounds was assessed in human leukemia cell lines. The cell lines MV-4-11 and MOLM14 harbor MLL translocations and express the MLL fusion proteins MLL-AF4 and MLL-AF9, respectively, as well as the wildtype protein from the second allele. […] K562 and KG1 were used as a control cell lines containing two MLL wildtype alleles in order to exclude compounds that display general cytotoxic effects.
(§2) MV-4-11 and MOLM14 were cultured in RPMI-1640 (Sigma Aldrich) supplemented with 10% fetal bovine serum (HyClone), 2 mM L-glutamine (Sigma Aldrich) and 50 μg/ml gentamycin (Gibco). K562 were propagated in RPMI-1640 (Sigma Aldrich) supplemented with 20% fetal bovine serum (HyClone), 2 mM L-glutamine (Sigma Aldrich) and 50 μg/ml gentamycin (Gibco). KG1 were cultured in Iscove's MDM (Gibco) supplemented with 20% fetal bovine serum (HyClone), 2 mM L-glutamine (Sigma Aldrich) and 50 μg/ml gentamycin (Gibco).
(§3) In order to assess the anti-proliferative effects, 1,500 MV-4-11, 300 MOLM14, 750 K562 or 1,300 KG1 cells were seeded in 200 μl media per well in 96-well round bottom, ultra-low attachment plates (Costar, catalogue number 7007). Cell seeding numbers were chosen based on growth curves to ensure linear growth throughout the experiment. Test compounds were added at different concentrations and the DMSO content was normalized to 0.3%. Cells were incubated for 8 d at 37° C. and 5% CO2. Spheroid like growth was monitored in real-time by live-cell imaging (IncuCyteZOOM, Essenbio, 4× objective) acquiring one image every four hours for 8 d. Confluence (%) as a measure of spheroid size was determined using an integrated analysis tool.
(§4) In order to determine the cumulative effect of the test compounds over time, the area under the curve (AUC) in a plot of confluence against time was calculated. Confluence at the beginning of the experiment (t=0) was used as baseline for the AUC calculation.
(§5) Absolute IC50 values were calculated according to the following procedure: % Control=(AUC sample/AUC control)*100
(§6) AUC control=mean AUC of control values (cells without compound/DMSO as vehicle control)
(§7) A non-linear curve fit was applied using the least squares (ordinary) fit method to the plot of % control versus compound concentration. Based on this, the absolute IC50 value (half maximal inhibitory concentration of the test compound causing an anti-proliferative effect of 50% relative to the vehicle control) was calculated.

MV-4-11 = assay: Proliferation assay (spheroid assay) MV-4-11; assay type: cell-based, human; conditions: for pIC50: Homo sapiens, MV4-11, MV-4-11, averaged values over all measurements, read-out: Spheroid assay MV-4-11 (IC50)
Procedure, shortened: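 Cells were grown as spheroids in ultra-low attachment round-bottom wells with compound (0.3% DMSO) for 8 d at 37 °C, imaged every 4 h, with confluence as spheroid size. AUC of confluence versus time (t=0 baseline) was expressed as % of DMSO control, and absolute IC50 came from a least-squares nonlinear fit.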

MOLM14 = assay: Proliferation assay (spheroid assay) MOLM14; assay type: cell-based, human; conditions: Homo sapiens; for pIC50: MOLM-14, MOLM14, averaged values over all measurements, read-out: Spheroid assay MOLM14 (IC50)
Method: as §1, §2, §3, §4, §5, §6, §7

[1] = target: T1, Menin/MLL (terbium chelate-labeled menin, FITC-MBM1 peptide) (Homo sapiens, UniProt O00255, T541A); assay: Menin/MLL homogenous time-resolved fluorescence (HTRF) assay; assay type: binding; conditions: for pIC50: averaged values over all measurements, read-out: Menin HTRF assay (IC50)
T1 construct: Menin (a.a. 1-610-6×his tag) was labeled with terbium cryptate as follows
T1 sequence (O00255 with tags, fused parts or gaps T541A): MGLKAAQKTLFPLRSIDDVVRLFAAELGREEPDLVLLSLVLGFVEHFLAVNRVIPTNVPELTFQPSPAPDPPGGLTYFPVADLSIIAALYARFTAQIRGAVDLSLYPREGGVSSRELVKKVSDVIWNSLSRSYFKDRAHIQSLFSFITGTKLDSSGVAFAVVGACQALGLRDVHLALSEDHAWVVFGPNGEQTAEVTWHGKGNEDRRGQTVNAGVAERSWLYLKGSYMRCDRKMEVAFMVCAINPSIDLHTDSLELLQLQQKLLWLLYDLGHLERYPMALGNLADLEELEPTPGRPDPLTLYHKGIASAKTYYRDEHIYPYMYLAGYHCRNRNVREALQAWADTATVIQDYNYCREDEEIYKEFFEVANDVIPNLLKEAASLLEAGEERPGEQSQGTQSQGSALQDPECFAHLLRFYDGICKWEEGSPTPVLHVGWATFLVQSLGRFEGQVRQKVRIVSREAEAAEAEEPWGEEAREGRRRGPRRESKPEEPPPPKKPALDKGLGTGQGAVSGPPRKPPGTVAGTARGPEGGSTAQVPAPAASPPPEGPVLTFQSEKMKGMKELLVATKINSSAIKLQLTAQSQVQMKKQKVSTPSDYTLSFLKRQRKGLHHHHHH
Procedure, shortened: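 Compound preincubated 5 min with terbium-cryptate-labeled menin (aa 1-610, His-tagged; 100 pM final), then 75 nM FITC-MBM1 peptide added, 15 min at ambient temperature; 0.5% DMSO, Tris pH 7.5 buffer. HTRF ratio 520/490 nm; % inhibition vs saturating competitor, IC50 from 11-point three-fold titration from 31 μM.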

K562 = assay: Proliferation assay (spheroid assay) K562 control cell line; assay type: cell-based; conditions: Homo sapiens; for pIC50: K562 control cell line, averaged values over all measurements, read-out: Spheroid assay K562 (IC50)
Method: as §1, §2, §3, §4, §5, §6, §7

[2] = target: T2, Menin/MLL (menin, FITC-MBM1 peptide) (Homo sapiens, UniProt O00255, T541A); assay: Menin/MLL fluorescence polarization (FP) assay; assay type: binding; conditions: averaged values over all measurements; read-out: Menin FP assay (IC50)
T2 construct: 6xHis (C)
T2 sequence (O00255 with tags, fused parts or gaps T541A): T1 sequence (O00255 with tags, fused parts or gaps T541A)
Method: Pharmacological Part 1) Menin/MLL Fluorescence Polarization Assay
To a non-surface binding, black 384-well microtiter plate was added 50 nL 160× test compound in DMSO and 4 μL 2× menin in assay buffer (40 mM Tris-HCl, pH 7.5, 50 mM NaCl, 1 mM DTT and 0.001% Tween 20). After incubation of test compound and menin for 10 min at ambient temperature, 4 μL 2×FITC-MBM1 peptide (FITC-β-alanine-SARWRFPARPGT-NH2) in assay buffer was added, the microtiter plate centrifuged at 1000 rpm for 1 min and the assay mixtures incubated for 15 min at ambient temperature. The relative amount of menin: FITC-MBM1 complex present in an assay mixture is determined by measuring the fluorescence polarization (FP) of the FITC label with a BMG Pherastar plate reader (ex. 485 nm/em. 520 nm) at ambient temperature. The final concentrations of reagents in the binding assay are 100 nM menin, 5 nM FITC-MBM1 peptide and 0.625% DMSO in assay buffer. Dose-response titrations of test compounds are conducted using an 11 point, three-fold serial dilution scheme, starting at 31 μM.
Compound potencies were determined by first calculating % inhibition at each compound concentration according to equation 1: % inhibition=((HC−LC)−(FP^compound−LC))/(HC−LC))*100 (Eqn 1)
Where LC and HC are the FP values of the assay in the presence or absence of a saturating concentration of a compound that competes with FITC-MBM1 for binding to menin, and FP^compound is the measured FP value in the presence of the test compound. HC and LC FP values represent an average of at least 16 replicates per plate.
Where Bottom and Top are the lower and upper asymptotes of the dose-response curve, respectively, IC50 is the concentration of compound that yields 50% inhibition of signal and h is the Hill coefficient.

SMILES	pIC50 (KG1)	pIC50 (MV-4-11)	pIC50 (MOLM14)	pIC50 [1]	other results
CC(C)CN1CC[C@@H]2CN(c3ncnc4sc(CC(F)(F)F)cc34)C[C@@H]2C1 (single isomer, unassigned) [Compound 36]	< 4.82	6.66	5.85	7.82	pIC50 (K562): < 4.82
Cc1ccc(CN2CC[C@@H]3CN(c4ncnc5sc(CC(F)(F)F)cc45)C[C@@H]3C2)cn1 (single isomer, unassigned) [Compound 40]	5.09	6.59	5.80	7.60	–
FC(F)(F)Cc1cc2c(N3CCC4C(CCN4Cc4ncc[nH]4)C3)ncnc2s1 (centres unmarked) (as salt: HCl) [Compound 22]	–	–	–	–	melting point: 140 °C
O=c1ccc(CN2CC[C@@H]3CN(c4ncnc5sc(CC(F)(F)F)cc45)C[C@@H]3C2)c[nH]1 (single isomer, unassigned) [Compound 67]	< 4.82	6.49	5.49	7.57	–
O=S(=O)(c1ccccc1)N1CC[C@@H]2CN(c3ncnc4sc(CC(F)(F)F)cc34)CC[C@@H]21 (as salt: HCl) (hydrate or solvate) [Compound 16]	–	–	–	–	melting point: 152 °C
CCCN1CC[C@@H]2CN(c3ncnc4sc(CC(F)(F)F)cc34)C[C@@H]2C1 (single isomer, unassigned) [Compound 57]	< 4.82	6.23	5.68	7.17	–
Cn1cc(CN2CC[C@H]3CN(c4ncnc5sc(CC(F)(F)F)cc45)C[C@H]3C2)cn1 (single isomer, unassigned) [Compound 71B]	< 4.82	6.38	5.66	7.27	pIC50 (K562): < 4.82
COc1cc(CN2CC[C@@H]3CN(c4ncnc5sc(CC(F)(F)F)cc45)C[C@@H]3C2)ccn1 (single isomer, unassigned) [Compound 63]	5.02	6.19	6.10	7.21	–
[2H]C([2H])(c1ccccc1)N1CC[C@@H]2CN(c3ncnc4sc(CC(F)(F)F)cc34)CC[C@@H]21 (single isomer, unassigned) [Compound 5]	–	–	–	–	IC50 (MV-4-11; MV-4-11, 8 d, individual measurements (not averaged), read-out: (2) Spheroid assay MV-4-11 (IC50 (μM))): 2.1 µM and > 15 µM; IC50 (MOLM14; MOLM-14, 192 h, MOLM14, 8 d, individual measurements (not averaged), read-out: (2) Spheroid assay MOLM14 (IC50 (μM))): 4.3 µM; IC50 ([1]; individual measurements (not averaged), read-out: (3) Menin HTRF assay (IC50 (nM))): 9 nM; IC50 (K562; 192 h, K562, 8 d, individual measurements (not averaged), read-out: (2) Spheroid assay K562 (IC50 (μM))): > 15 µM
FC(F)(F)Cc1cc2c(N3C[C@H]4CCN(CC5CCNCC5)C[C@H]4C3)ncnc2s1 (single isomer, unassigned) [Compound 70B]	–	6.55	5.70	7.62	pIC50 (K562): < 4.82
Cc1ncccc1CN1CC[C@@H]2CN(c3ncnc4sc(CC(F)(F)F)cc34)C[C@@H]2C1 (single isomer, unassigned) [Compound 60]	5.74	6.18	6.66	7.02	–
FC(F)(F)Cc1cc2c(N3C[C@@H]4CN(Cc5ccccc5)C[C@@H]43)ncnc2s1 [Compound 29]	–	–	–	5.46	melting point: 134 °C
FC(F)(F)Cc1cc2c(N3C[C@H]4CCN(Cc5ccncc5)C[C@H]4C3)ncnc2s1 (single isomer, unassigned) [Compound 64]	5.08	6.26	6.11	7.60	–
COc1ccc(CN2CC[C@@H]3CN(c4ncnc5sc(CC(F)(F)F)cc45)C[C@@H]3C2)cn1 (single isomer, unassigned) [Compound 45]	< 4.82	6.55	5.74	7.80	–
FC(F)(F)Cc1cc2c(N3C[C@@H]4CCN(Cc5ccccc5)C[C@@H]43)ncnc2s1 (single isomer, unassigned) [Compound 30]	–	–	–	~5.90	melting point: 140 °C
Fc1ccc(CN2CC[C@@H]3CN(c4ncnc5sc(CC(F)(F)F)cc45)C[C@@H]3C2)cn1 (single isomer, unassigned) [Compound 37]	< 4.82	6.32	5.89	7.39	–
CC(C)(C)OC(=O)N1CCC(CN2CC[C@@H]3CN(c4ncnc5sc(CC(F)(F)F)cc45)C[C@@H]3C2)CC1 (single isomer, unassigned) [Compound 20]	–	6.42	6.01	7.51	pIC50 (K562): < 4.82
Fc1ccccc1CN1CC[C@@H]2CN(c3ncnc4sc(CC(F)(F)F)cc34)CC[C@@H]21 (single isomer, unassigned) [Compound 7]	–	–	4.84	6.29	pIC50 [2]: 6.20; pIC50 (K562): < 4.82
CC(C)CN1CCC2CN(c3ncnc4sc(CC(F)(F)F)cc34)CCC21 (centres unmarked) (as salt: HCl) [Compound 25]	–	–	–	–	melting point: 140 °C
